From ChEMBL document CHEMBL1124131, “Derivatives of 2-methylenepropane-1,3-diol as new antagonists of platelet activating factor” (J Med Chem, 1988)

Tests used:
Rattus norvegicus [1] = test: Tested in vivo for dose required to inhibit PAF-induced hypotension in rat
Cavia porcellus = test: Tested in vivo for dose required to inhibit PAF-induced bronchoconstriction in guinea pig; format: functional
Oryctolagus cuniculus = species: Oryctolagus cuniculus; test: Concentration required to reduce 50% of maximum platelet aggregation caused by PAF in platelet rich plasma from rabbit in vitro; format: functional
Rattus norvegicus [2] = test: Tested in vivo for dose required to inhibit PAF-induced hypotension in rat; remark: listed apart in the source

| Structure (SMILES) | ED50 (Rattus norvegicus [1]) [mg/kg] | ED50 (Cavia porcellus) [mg/kg] | EC50 (Oryctolagus cuniculus) [nM] | ED50 (Rattus norvegicus [2]) [mg/kg] |
| --- | --- | --- | --- | --- |
| C=C(COC(=O)CCCCC[n+]1ccccc1)COC(=O)NCCCCCCCCCCCCCCCCCC.[Br-] | 0.5 | 0.2 | 500 | – |
| C=C(COC(=O)CCCCCC[n+]1ccsc1)COC(=O)NCCCCCCCCCCCCCCCCCC.[Br-] | – | 0.1 | 250 | 0.5 |
